Assay results: patent US11096948B2, “Methods for treating helicobacter infection” (DEXCEL PHARMA TECHNOLOGIES LTD., priority 2016, dated 2021)
Where “and” joins values, the source holds several entries; their conditions need not be identical. Identical values can stand only once.

Key:
H. pylori ATCC No. 43826 = assay: Disk diffusion susceptibility of H. pylori to sodium fusidate; format: cell-based, Helicobacter pylori; conditions: 4 days at 37° C., sample No. = replicate disk
Description: (§1) In vitro testing for the susceptibility of H. pylori to sodium fusidate was performed. Inoculation was made with a broth culture of two ATCC strains of H. pylori (ATCC No. 700824 and 43826) diluted to match a 0.5 McFarland turbidity standard. Disks containing increasing antibiotic concentrations (0.5-4.0%) were placed on seeded bacterial lawn on agar surface. Three disks with the same antibiotic concentration were placed on each plate. The disks were evenly distributed in a circle towards the periphery of the plate. Plates were incubated for 4 days at an incubation temperature of 37° C. (with Microaerophilic pach). Diameter of inhibition sizes was measured wherein each disk was considered to represent the center of the clear zone, namely the slope of the regression line is construed to correspond to the diffusion coefficient of the antibiotic in the agar. Negative control disks containing water instead of antibiotics were placed at the center of each dish. A separate plate with no disks was prepared as an additional control. […]

[1] = system: H. pylori ATCC No. 700824; assay: as above; format: cell-based, Helicobacter pylori; conditions: 4 days at 37° C., sample No. = replicate disk
Description: as §1

[2] = system: different strains of H. pylori; assay: In vitro studies against different strains of H. pylori; format: cell-based, Helicobacter pylori
Source text: The present disclosure is based in part on the unexpected finding of bacteriostatic and/or bacteriocidic action of fusidic acid or a pharmaceutically acceptable salt or solvate thereof (e.g. sodium fusidate) against H. pylori. […] This finding provides a significant advantage over the hitherto known treatments, by increasing the percentage of patients in which eradication is achieved, reducing doses and side effects of conventional add-on therapy, preserving gut microbiota, and decreasing exposure to conventional antibiotics thereby decreasing antibiotic resistance. In addition, fusidic acid and/or salts and solvates thereof have no cross-resistance with the existing antibiotics used for the treatment of H. pylori and have low probability for developing resistance.

H. pylori = conditions: cited from earlier work
[3] = sodium fusidate con. 0.5% on disk
[4] = sodium fusidate con. 1.0% on disk
[5] = sodium fusidate con. 4.0% on disk

| Compound | Diameter of inhibition (H. pylori ATCC No. 43826; [3]) [cm] | Diameter of inhibition (H. pylori ATCC No. 43826; [4]) [cm] | Diameter of inhibition (H. pylori ATCC No. 43826; [5]) [cm] | Diameter of inhibition [1, 3] | Diameter of inhibition [1, 4] | Diameter of inhibition [1, 5] [cm] | Activity against different strains of H. pylori [2] | Efficacy as monotherapy against H. pylori (H. pylori) |
| --- | --- | --- | --- | --- | --- | --- | --- | --- |
| CC(=O)O[C@H]1C[C@@]2(C)[C@@H](C[C@@H](O)[C@H]3[C@@]4(C)CC[C@@H](O)[C@@H](C)[C@@H]4CC[C@@]32C)/C1=C(\CCC=C(C)C)C(=O)O [Sodium fusidate, sodium fusidate] | ≥4.4 | ≥4.4 | ≥4.4 | 1.6 cm and 2 cm and 2.4 cm | 2.7 cm and 2.6 cm and 3.0 cm | ≥4.4 | active |  |
| CC(=O)O[C@H]1C[C@@]2(C)[C@@H](C[C@@H](O)[C@H]3[C@@]4(C)CC[C@@H](O)[C@@H](C)[C@@H]4CC[C@@]32C)/C1=C(\CCC=C(C)C)C(=O)O [fusidic acid, 29-Nordammara-17(20),24-dien-21-oic acid, 16-(acetyloxy)-3,11-dihydroxy-, (3α, 4α, 8α, 9α, 11α, 13α, 14β, 16β, 17Z)-] |  |  |  |  |  |  | active | ineffective |
